As a reminder, the IC50 is the point on the concentration scale where inhibition reaches its midpoint.

IC50 data for 80 compounds are collected here from PubChem BioAssay AID602210 (Sanford-Burnham Center for Chemical Genomics, 2012).

Calls of active or inactive are those of the source. No rule for the calls is given here.

The experiment in a line: modulators of 2-deoxyglucose-induced H9c2 death, dose response, myocardial damage modulator project, cell-based, ATPlite luminescence, rat, set 2 (AID 602210). Conditions: H9c2 rat cardiomyoblasts, 2-deoxyglucose-induced death, 2 h.
On to `COc1ccc(COc2cc(-c3cccc(OC)c3)nc3ccc(NC(=O)c4ccc(OC)cc4)cc23)cc1`, for which the IC50 was 4.21 µM. With `CCCC(=O)Nc1nc2ccc(NC(=O)c3ccc(Br)o3)cc2s1`, the IC50 was > 79 µM (inactive). For the compound `COc1ccc(-c2cc(C(=O)NC(C)c3ccccn3)c3ccccc3n2)cc1OC` (stereo not given), the IC50 was 13.4 µM (inactive). Then `CC(=O)NCc1ccc(-c2csc(NC(=O)CCc3nc4ccccc4c(=O)[nH]3)n2)s1`, with 28.5 µM (inactive). As to `O=C(CN1CCN(Cc2ccccc2)CC1)Nc1ccc([N+](=O)[O-])cc1C(=O)Nc1ccccc1F`, the IC50 is 24.6 µM (inactive). The value for `CC(C)=NNc1cnnc2ccc([N+](=O)[O-])cc12` was 13.4 µM (inactive); that for `COc1cccc(-c2nn3c(-c4ccccn4)nnc3s2)c1` was 16.1 µM (inactive). Turning to `O=C1NC(Cc2ccc(O)cc2)c2nc3ccc(F)cc3c(=O)n2-c2cc3ccccc3cc21` (stereo not given), the IC50 was 11.1 µM (inactive).

Turning to `O=C(Nc1cc(S(=O)(=O)N2CCOCC2)ccc1N1CCCCC1)c1cc(-c2ccccn2)nc2ccccc12`, the IC50 is 14.6 µM (inactive). `COc1cccc(Nc2nc3ccccc3n3cnnc23)c1`: the IC50 was 17.5 µM (inactive). As to `CC(=O)Nc1cc(-c2cccc(NS(C)(=O)=O)c2)cn2c(-c3cccc(C(C)=O)c3)cnc12`, the IC50 was 16.2 µM (inactive). For the compound `COc1cc(Nc2nc3ccccc3n3nnnc23)cc(OC)c1OC`, the IC50 was 8.82 µM. Regarding `COc1cc(-c2cc(C(=O)Nc3cccc(C(C)=O)c3)c3ccccc3n2)cc(OC)c1OC`, the IC50 was 9.8 µM. As for `Fc1ccc(CSc2ccc3nnc(-c4cccnc4)n3n2)cc1`, the IC50 is 44.5 µM (inactive). As to `CCOC(=O)c1ccc(-c2ccc(/C=C(\C#N)C(=O)NCC3CCCO3)o2)cc1` (stereo not given), the IC50 was > 79 µM (inactive).

For `O=C(Nc1ccc2c(c1)OCO2)c1cnn2c(C(F)(F)F)cc(-c3ccco3)nc12`, the IC50 was > 79 µM (inactive). The value for `COC(=O)/C(=C(O)\C=C\c1ccccc1[N+](=O)[O-])c1nc2ccccc2[nH]1` was 13.5 µM (inactive); that for `C[C@H]1Cn2cnc(C(=O)N[C@@H](Cc3c[nH]c4ccccc34)C(=O)OC(C)(C)C)c2C(=O)N1` was 24.7 µM (inactive); that for `Cc1ccc(-c2nnc3ccc(SCC(=O)N4CCCc5ccccc54)nn23)cc1` was 14 µM (inactive). With `CCOC(=O)C1CCN(C(=O)c2ccc3c(=O)n4nc(Nc5ccccc5OC)sc4nc3c2)CC1`, the IC50 was 15.9 µM (inactive). Consider `COc1ccc(-c2cc(-c3nnc(COC(=O)c4ccncc4)o3)c3ccccc3n2)cc1OC`, for which the IC50 is 18.1 µM (inactive). Regarding `O=C(N/N=C/c1ccc(-c2cccc([N+](=O)[O-])c2)o1)c1ccc([N+](=O)[O-])cc1`, the IC50 was 11.8 µM (inactive). Take `COc1cccc(/C=N/NC(=O)c2ccncc2)c1OC(=O)c1ccc(Br)cc1`: the IC50 was 28.3 µM (inactive). Turning to `Cn1c(=O)n(CCc2ccccc2)c(=O)c2c1nc1n2CCCN1Cc1ccccc1`, the IC50 was 14.5 µM (inactive). Take `CCC(c1nnnn1Cc1ccccc1)N1CCC(n2c(=O)[nH]c3ccccc32)CC1` (stereo not given): the half-inhibitory concentration (IC50) was 1.98 µM. Turning to `CCN(C[C@H]1N[C@@](C)(C(=O)OC)[C@H]2C(=O)N(Cc3ccccc3)C(=O)[C@@H]12)C(=O)c1ccc(C(C)(C)C)cc1`, the IC50 is 17.9 µM (inactive). Then `COc1ccccc1OCC(=O)Nc1cccc(-c2nnc(-c3ccco3)o2)c1`, with > 79 µM (inactive); and `C[C@@H](NC(=O)c1nc[nH]c1C(=O)NCC(=O)OCc1ccccc1)c1ccccc1`, with 9.89 µM. As for `CCCn1nc(C(=O)Nc2nc(-c3ccccn3)cs2)c2ccccc2c1=O`, the IC50 was 9.03 µM. As to `COc1cc(NC(=O)c2cc([N+](=O)[O-])ccc2NC(=O)CN2CCN(c3ccccn3)CC2)cc(OC)c1`, the IC50 is > 79 µM (inactive). For `COc1ccc(C(=O)Nc2nc(-c3ccccn3)cs2)cc1S(=O)(=O)N1CCOCC1`, the IC50 is 26.8 µM (inactive). Turning to `COc1ccccc1OP(=O)(Nc1cccnc1)Oc1ccccc1OC`, the IC50 was 8.19 µM. As for `CC(C)(C)OC(=O)NCC12C=CC(O1)C1C(=O)N(Cc3ccccc3)C(=O)C12` (stereo not given), the IC50 is 21.5 µM (inactive). With `COC(=O)c1cc(OC)c(OC)cc1NC(=O)c1ccc(C)o1`, the IC50 is 23.4 µM (inactive). Then `CC(=O)Nc1cc(-c2ccc(C(=O)N3CCOCC3)cc2)cn2c(-c3ccc(C(C)=O)cc3)cnc12`, with 27.1 µM (inactive); and `CC(=O)Nc1cccc(-c2cc(NC(C)=O)c3ncc(-c4cccc(C(C)=O)c4)n3c2)c1`, with 13.1 µM (inactive).

Turning to `CCCCn1nc(NC(=O)c2cccs2)c2cc3cc(OC)ccc3nc21`, the IC50 is > 79 µM (inactive). As to `COc1ccc2cc3cc(C(=O)NCCc4ccc(OC)c(OC)c4)oc3nc2c1`, the IC50 was 10.4 µM (inactive).

As to `CCOC(=O)C(Cc1ccc(NC(=O)/C(=C/c2ccc(OC(C)=O)cc2)NC(C)=O)cc1)N1C(=O)c2ccccc2C1=O` (stereo not given), the IC50 is 15.6 µM (inactive). The value for `Cc1ccc(C(C(=O)NCc2ccccc2)N(Cc2ccco2)C(=O)c2snc(C(N)=O)c2N)o1` (stereo not given) was 8.59 µM. For `COCCCN(Cc1ccco1)C(=O)Cn1ncc2c([nH]c3ccccc32)c1=O`, the IC50 is 25.5 µM (inactive). `CC(C)OCCCNC(=O)CCC(=O)NNc1nc2ccccc2c2nc(-c3ccccc3)nn12`: the IC50 was 22.2 µM (inactive). On to `CC(=O)Nc1ccc(NS(=O)(=O)c2cc(-c3n[nH]c(=O)c4ccccc34)ccc2C)cc1`, for which the IC50 was 44 µM (inactive).

On to `COc1ccc(NC(=O)c2cc3c(=O)n(C)c4ccccc4c3n2C)cc1OC`, for which the IC50 was > 79 µM (inactive).

Take `COc1ccc(CCNC(=O)C(=O)NCC2CCCN2S(=O)(=O)c2ccccc2)cc1OC` (stereo not given): the IC50 was 15.4 µM (inactive). Regarding `COc1ccc2c(c1OC)C(=O)N1c3ccccc3C(=O)N(c3ccccc3)C21` (stereo not given), the IC50 was 8.7 µM. As to `N#C/C(=C\Nc1ccc2c(c1)OCCO2)c1nc2ccccc2[nH]1`, the IC50 is 17.3 µM (inactive).

In the case of `COc1cc(NC(=O)c2ccco2)c(OC)cc1NC(=O)c1cc(OC)c(OC)c(OC)c1`, the IC50 was 7.97 µM. On to `CCCc1cc(N2CCN(C(=O)c3ccco3)CC2)n2c(nc3ccccc32)c1C#N`, for which the IC50 is 26.3 µM (inactive). Then `CCOc1ccc(CCNC(=O)c2cc3c(C)nccc3[nH]c2=O)cc1OCC`, with 8.64 µM. Regarding `S=C(Nc1ccc(N2CCOCC2)cc1)Nc1ccc2nc(-c3ccco3)c(-c3ccco3)nc2c1`, the IC50 was 11.3 µM (inactive). Consider `COc1cc(-c2cnc3c(NC=O)cc(-c4ccsc4)cn23)cc(OC)c1OC`, for which the IC50 was 6.13 µM. Turning to `NC(=O)c1nsc(C(=O)N(c2ccccc2)C(C(=O)NC2CCCC2)c2ccc3ncccc3c2)c1N` (stereo not given), the IC50 was 6.5 µM. For `CC(=O)c1ccc(-c2cnc3c(NC=O)cc(-c4cccc(C(=O)N(C)C)c4)cn23)cc1`, the IC50 was 12.2 µM (inactive). On to `COc1cc2[nH]c(=O)n3nc(-c4ccccc4)nc3c2cc1OC`, for which the IC50 is 12.1 µM (inactive).

As for `COc1cc(/C=N/NC(=O)NC23CC4CC(CC(C4)C2)C3)ccc1OCC(N)=O`, the IC50 was 7.76 µM. Consider `Nc1c(C(=O)N/N=C/c2cccnc2)oc2nc(-c3ccccc3)cc(-c3ccco3)c12`, for which the IC50 is 3.52 µM. Then `C[C@@H]1CN([C@@H](C)CO)C(=O)c2cc(NC(=O)Nc3ccccc3)ccc2O[C@H]1CN(C)C(=O)Nc1cccc2ccccc12`, with 15 µM (inactive); and `O=C(NCc1ccco1)c1cc(-c2cccnc2)nc2ccc(Cl)cc12`, with > 79 µM (inactive). As to `CSc1nc2ccc(S(=O)(=O)Nc3c(C)n(C)n(-c4ccccc4)c3=O)cc2s1`, the IC50 is 8.98 µM. As to `Cc1ccccc1C1c2[nH]c3ccccc3c2C[C@H]2C(=O)N(c3ccccc3C(=O)NCCCN3CCOCC3)C(=O)N12` (stereo not given in full), the IC50 was 46 µM (inactive).

As for `O=C(C(=O)N(Cc1ccccc1)Cc1ccccc1)c1c(-c2ccccc2)[nH]c2ccccc12`, the IC50 is 1.88 µM. Then `NS(=O)(=O)c1ccc(CCNc2ccn3nc(-c4ccc(OCCN5CCOCC5)cc4)cc3n2)cc1`, with 45.8 µM (inactive); and `CCn1c(=O)cc(OCC(=O)Nc2ccccc2C#N)c2ccccc21`, with 43.9 µM (inactive). Regarding `COc1ccc(-n2cc(-c3ccccc3)c3c(N4CCOCC4)ncnc32)cc1`, the IC50 is 6.04 µM. With `CN(C)S(=O)(=O)c1ccc2[nH]cc(/C=C/c3nc4ccccc4c(=O)n3-c3ccccc3)c2c1`, the IC50 was 4.24 µM. Then `COc1cc(-c2nnc(-c3cc(-c4ccccc4)nc4ccccc34)o2)cc(OC)c1OC`, with 7.22 µM. The value for `COc1ccc(C=NNc2nc3c([nH]2)c(=O)n(C)c(=O)n3C)cc1` was 16.6 µM (inactive); that for `CCOC(=O)c1cccc(Nc2nc(-c3cccnc3)nc3ccccc23)c1` was > 79 µM (inactive). The value for `CC(=O)c1cccc(Nc2nc3ccccc3n3cnnc23)c1` was 8.67 µM; that for `COc1cccc(OC)c1C(=O)Nc1cc(C)nn1-c1nc2ccccc2[nH]1` was 4.52 µM; that for `Cc1ccc(S(=O)(=O)N2CCN(C(=O)c3cc(=O)[nH]c4ccccc34)CC2)c(C)c1` was 23 µM (inactive). As for `COc1ccc(N/C=C(\C#N)c2nc3ccccc3n2C)c(OC)c1`, the IC50 is > 79 µM (inactive). Regarding `C[C@H](NC(=O)c1nc[nH]c1C(=O)NCC(=O)OCc1ccccc1)C(=O)OCc1ccccc1`, the IC50 is 2.8 µM. On to `CSc1nc2ncc3c(n2n1)CC1c2ccccc2CCN1C3=O` (stereo not given), for which the IC50 was 51.3 µM (inactive). With `O=S(=O)(c1ccccc1)N1CCN(c2nc(-c3cccnc3)nc3ccccc23)CC1`, the IC50 is 12 µM (inactive). For the compound `O=C(N/N=C\c1ccccn1)c1cccc(C(=O)N/N=C\c2ccccn2)n1`, the IC50 is 10.2 µM (inactive). For `O=C(COC(=O)c1ccccc1C(=O)OCC(=O)NCCc1c[nH]c2ccccc12)NCCc1c[nH]c2ccccc12`, the IC50 is 9.24 µM. On to `COc1ccc(-c2cc(-c3nnc(COC(=O)C4CC4C)o3)c3ccccc3n2)cc1OC` (stereo not given), for which the IC50 was 10.3 µM (inactive). In the case of `CC(=O)Nc1cccc(NC(=O)c2cc(-c3cccnc3)nc3ccc(Cl)cc23)c1`, the IC50 is > 79 µM (inactive).
